Results: US20150299188A1, “HETEROCYCLIC COMPOUND” (priority 2012, published 2015)

test system: FLAP (5-lipoxygenase activating protein); test: In vitro binding test: displacement of [3H]-7-chloro-3-(5-((3-fluoropyridin-2-yl)methoxy)-2-methylphenyl)-3,4-dihydroquinazolin-2(1H)-one from Sf9 microsome fractions; set-up: species or system human and mouse; details: Sf9 microsome fractions expressing FLAP; 100% = radioligand binding with 10 μM sodium 3-(3-(tert-butylsulfanyl)-1-(4-chlorobenzyl)-5-isopropyl-1H-indol-2-yl)-2,2-dimethylpropanoate, 0% = DMSO; test compound concentration not given
Method in brief: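 Sf9 microsomes expressing human or mouse FLAP (2 μg/mL) preincubated with compound 10 min at room temperature, then 120 nM tritiated quinazolinone ligand added for 60 min; buffer 100 mM Tris-HCl pH 7.5 with NaCl, EDTA, DTT, glycerol, Tween20. Bound ligand filtered and counted by scintillation; 10 μM indole propanoate defines 100% inhibition, DMSO 0%.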

| SMILES | inhibitory rate (%) |
| --- | --- |
| Cc1ccc(OC(C)c2ncccc2F)cc1N1Cc2ccccc2NC1=O (stereo not shown) [Example 215, 3-(5-(1-(3-fluoropyridin-2-yl)ethoxy)-2-methylphenyl)-3,4-dihydroquinazolin-2(1H)-one] | 79 |
| COC(=O)c1ccc2c(c1)NC(=O)N(c1cc(OCc3ncccc3F)ccc1C)C2 [Example 216, methyl 3-(5-((3-fluoropyridin-2-yl)methoxy)-2-methylphenyl)-2-oxo-1,2,3,4-tetrahydroquinazoline-7-carboxylate] | 104 |
| Cc1ccc(OCc2c(F)cccc2F)cc1N1Cc2cccc(C(C)(C)O)c2NC1=O [Example 217, 3-(5-((2,6-difluorobenzyl)oxy)-2-methylphenyl)-8-(2-hydroxypropan-2-yl)-3,4-dihydroquinazolin-2(1H)-one] | 87 |
| O=C1Nc2cc(CO)ccc2CN1c1cc(OCc2c(F)cccc2F)ccc1Cl [Example 218, 3-(2-chloro-5-((2,6-difluorobenzyl)oxy)phenyl)-7-(hydroxymethyl)-3,4-dihydroquinazolin-2(1H)-one] | 95 |
| COC(=O)c1ccc(OCc2ncccc2F)cc1N1Cc2ccccc2NC1=O [Example 219, methyl 4-((3-fluoropyridin-2-yl)methoxy)-2-(2-oxo-1,4-dihydroquinazolin-3(2H)-yl)benzoate] | 106 |
| CCc1ccc(OCc2ncccc2F)cc1N1Cc2ccccc2NC1=O [Example 220, 3-(2-ethyl-5-((3-fluoropyridin-2-yl)methoxy)phenyl)-3,4-dihydroquinazolin-2(1H)-one] | 106 |
| O=C(NC1CC1)c1ccc(OCc2ncccc2F)cc1N1Cc2ccccc2NC1=O [Example 221, N-cyclopropyl-4-((3-fluoropyridin-2-yl)methoxy)-2-(2-oxo-1,4-dihydroquinazolin-3(2H)-yl)benzamide] | 72 |
| CC(C)(O)c1ccc2c(c1)NC(=O)N(c1cc(OCc3c(F)cccc3F)ccc1Cl)C2 [Example 222, 3-(2-chloro-5-((2,6-difluorobenzyl)oxy)phenyl)-7-(2-hydroxypropan-2-yl)-3,4-dihydroquinazolin-2(1H)-one] | 103 |
| Cc1ccc(OCc2c(F)cccc2F)cc1N1Cc2ncccc2NC1=O [Example 223, 3-(5-((2,6-difluorobenzyl)oxy)-2-methylphenyl)-3,4-dihydropyrido[3,2-d]pyrimidin-2(1H)-one] | 95 |
| N#Cc1ccc(OCc2ncccc2F)cc1N1Cc2ccccc2NC1=O [Example 224, 4-((3-fluoropyridin-2-yl)methoxy)-2-(2-oxo-1,4-dihydroquinazolin-3(2H)-yl)benzonitrile] | 87 |
| CCCCOC(=O)/C=C/c1ccc(OCc2ncccc2F)cc1N1Cc2ccccc2NC1=O [Example 225, butyl (2E)-3-(4-((3-fluoropyridin-2-yl)methoxy)-2-(2-oxo-1,4-dihydroquinazolin-3(2H)-yl)phenyl)acrylate] | 100 |
| Cc1nc(COc2ccc(C)c(N3Cc4ccc(C(C)(C)O)cc4NC3=O)c2)cs1 [Example 226, 7-(2-hydroxypropan-2-yl)-3-(2-methyl-5-((2-methyl-1,3-thiazol-4-yl)methoxy)phenyl)-3,4-dihydroquinazolin-2(1H)-one] | 52 |
| Cc1ccc(OCc2ncccc2F)cc1N1Cc2ccc(C(=O)N3CCCC(O)C3)cc2NC1=O (stereo not shown) [Example 227, 3-(5-((3-fluoropyridin-2-yl)methoxy)-2-methylphenyl)-7-((3-hydroxypiperidin-1-yl)carbonyl)-3,4-dihydroquinazolin-2(1H)-one] | 90 |
| CCCCOC(=O)CCc1ccc(OCc2ncccc2F)cc1N1Cc2ccccc2NC1=O [Example 228, butyl 3-(4-((3-fluoropyridin-2-yl)methoxy)-2-(2-oxo-1,4-dihydroquinazolin-3(2H)-yl)phenyl)propanoate] | 95 |
| O=C(O)CCc1ccc(OCc2ncccc2F)cc1N1Cc2ccccc2NC1=O [Example 229, 3-(4-((3-fluoropyridin-2-yl)methoxy)-2-(2-oxo-1,4-dihydroquinazolin-3(2H)-yl)phenyl)propanoic acid] | 76 |
| O=C1Nc2ccccc2CN1c1cc(OCc2ncccc2F)ccc1Cl [Example 231, 3-(2-chloro-5-((3-fluoropyridin-2-yl)methoxy)phenyl)-3,4-dihydroquinazolin-2(1H)-one] | 103 |
| COC(=O)c1ccc2c(c1)NC(=O)N(c1cc(OCc3ccccn3)ccc1C)C2 [Example 232, methyl 3-(2-methyl-5-(pyridin-2-ylmethoxy)phenyl)-2-oxo-1,2,3,4-tetrahydroquinazoline-7-carboxylate] | 104 |

| SMILES | inhibitory rate (%) |
| --- | --- |
| CC(C)(O)c1ccc2c(c1)NC(=O)N(c1cc(OCc3c(F)cccc3F)ccc1F)C2 [Example 233, 3-(5-((2,6-difluorobenzyl)oxy)-2-fluorophenyl)-7-(2-hydroxypropan-2-yl)-3,4-dihydroquinazolin-2(1H)-one] | 87 |
| O=C1Nc2cc(CO)ccc2CN1c1cc(OCc2c(F)cccc2F)ccc1F [Example 234, 3-(5-((2,6-difluorobenzyl)oxy)-2-fluorophenyl)-7-(hydroxymethyl)-3,4-dihydroquinazolin-2(1H)-one] | 85 |
| Cc1ccc(OCc2c(F)cccc2F)cc1N1Cc2cnccc2NC1=O [Example 235, 3-(5-((2,6-difluorobenzyl)oxy)-2-methylphenyl)-3,4-dihydropyrido[4,3-d]pyrimidin-2(1H)-one] | 79 |
| Cc1ccc(OCc2c(F)cccc2F)cc1N1Cc2nn(C)cc2NC1=O [Example 236, 6-(5-((2,6-difluorobenzyl)oxy)-2-methylphenyl)-2-methyl-2,4,6,7-tetrahydro-5H-pyrazolo[4,3-d]pyrimidin-5-one] | 65 |
| COC(=O)c1ccc2c(c1)NC(=O)N(c1cc(OCc3nccs3)ccc1C)C2 [Example 237, methyl 3-(2-methyl-5-(1,3-thiazol-2-ylmethoxy)phenyl)-2-oxo-1,2,3,4-tetrahydroquinazoline-7-carboxylate] | 100 |
| CC(C)(O)c1ccc2c(c1)NC(=O)N(c1cc(OCc3c(F)cccc3F)ccc1C(F)(F)F)C2 [Example 238, 3-(5-((2,6-difluorobenzyl)oxy)-2-(trifluoromethyl)phenyl)-7-(2-hydroxypropan-2-yl)-3,4-dihydroquinazolin-2(1H)-one] | 84 |
| O=C1Nc2cc(CO)ccc2CN1c1cc(OCc2c(F)cccc2F)ccc1C(F)(F)F [Example 239, 3-(5-((2,6-difluorobenzyl)oxy)-2-(trifluoromethyl)phenyl)-7-(hydroxymethyl)-3,4-dihydroquinazolin-2(1H)-one] | 86 |
| Cc1ccc(OCc2c(F)cccc2F)cc1N1Cc2ccncc2NC1=O [Example 240, 3-(5-((2,6-difluorobenzyl)oxy)-2-methylphenyl)-3,4-dihydropyrido[3,4-d]pyrimidin-2(1H)-one] | 76 |
| COC(=O)c1ccc2c(c1)NC(=O)N(c1cc(OCc3ncc(C)s3)ccc1C)C2 [Example 241, methyl 3-(2-methyl-5-((5-methyl-1,3-thiazol-2-yl)methoxy)phenyl)-2-oxo-1,2,3,4-tetrahydroquinazoline-7-carboxylate] | 94 |
| Cc1ccc(OCc2ncccc2F)cc1N1Cc2c(Cl)cccc2NC1=O [Example 242, 5-chloro-3-(5-((3-fluoropyridin-2-yl)methoxy)-2-methylphenyl)-3,4-dihydroquinazolin-2(1H)-one] | 102 |
| Cc1ccc(OCc2ncccc2F)cc1N1Cc2cc(Cl)ccc2NC1=O [Example 243, 6-chloro-3-(5-((3-fluoropyridin-2-yl)methoxy)-2-methylphenyl)-3,4-dihydroquinazolin-2(1H)-one] | 100 |
| Cc1ccc(OCc2ncccc2F)cc1N1Cc2ccc(Cl)cc2NC1=O [Example 244, 7-chloro-3-(5-((3-fluoropyridin-2-yl)methoxy)-2-methylphenyl)-3,4-dihydroquinazolin-2(1H)-one] | 113 |
| CCCc1ccc(OCc2ncccc2F)cc1N1Cc2ccccc2NC1=O [Example 245, 3-(5-((3-fluoropyridin-2-yl)methoxy)-2-propylphenyl)-3,4-dihydroquinazolin-2(1H)-one] | 99 |
| COC(=O)c1ccc2c(c1)NC(=O)N(c1cc(OCc3nccc(Cl)c3F)ccc1C)C2 [Example 246, methyl 3-(5-((4-chloro-3-fluoropyridin-2-yl)methoxy)-2-methylphenyl)-2-oxo-1,2,3,4-tetrahydroquinazoline-7-carboxylate] | 109 |
| Cc1ccc(OCc2ncc(F)cc2F)cc1N1Cc2ccccc2NC1=O [Example 247, 3-(5-((3,5-difluoropyridin-2-yl)methoxy)-2-methylphenyl)-3,4-dihydroquinazolin-2(1H)-one] | 99 |
| CCOC(=O)CCCCc1ccc(OCc2ncccc2F)cc1N1Cc2ccccc2NC1=O [Example 248, ethyl 5-(4-((3-fluoropyridin-2-yl)methoxy)-2-(2-oxo-1,4-dihydroquinazolin-3(2H)-yl)phenyl)pentanoate] | 98 |
| COC(=O)c1ccc2c(c1)NC(=O)N(c1cc(OCc3nc(C)cs3)ccc1C)C2 [Example 249, methyl 3-(2-methyl-5-((4-methyl-1,3-thiazol-2-yl)methoxy)phenyl)-2-oxo-1,2,3,4-tetrahydroquinazoline-7-carboxylate] | 90 |
